One series relates to IFNa pSTAT1. As to the kind of experiment: Phosphorylation of STAT1 inhibition in HMC3 cells with HTRF assay. The series is classed as cell-based. The conditions noted are these: Homo sapiens, HMC3 microglia cells, 50ng/mL hINFα 1 hour, read-out: HTRF_HMC3 IC 50 (IFNa pSTAT1). As for the experimental part: Seeding HMC3 cells into 96-well plate and incubate overnight. Pre-stimulation with recombinant human IFNα (Sino biological, H08Y), treat cells with compound with different concentration for 1hr. After compound treatment, stimulate cells with 50ng/mL hINFα for another 1 hour (for CCF-STTG1 cells IFNα induction time is 30 mins). After compound treatment and cytokine stimulation, dump old medium and lyse cells with supplemented lysis buffer provided by the HTRF kit (Revvity, 63ADK026PEG) for 30 min at room temperature under shaking. After homogenization by pipetting up and down, transfer 16 µL of cell lysate from the 96-well cell-culture plate to a small volume white 384-well plate, and then add 4 µL of pre-mixed two ready-to-use antibody working solution into each wells. Cover the plate with a plate sealer and incubate it overnight at room temperature. Read the fluorescence emission at two different wavelengths (665nm and 620nm) on microplate reader (Molecular Device, SpectraMax i3X). Collect data and analyzed with GraphPad Prism.
In general terms: TR-FRET usually uses a lanthanide donor and a delayed reading to cut background.

In the next series the test system is Caco-2 cell lines. As to the kind of experiment: Caco-2 cell permeability. The series is classed as in vitro ADME. The conditions noted are these: Caco-2; result in words. On the technique in general: Passage across Caco-2 layers is used to estimate intestinal permeability.
For the next series, the system named is TYK2 pathway. As to the kind of experiment: IFN-γ release in NK92 cells stimulated by IL-12 (ELISA). The conditions noted are these: IL-12 2.5ng/mL stimulation 15hrs, IFN-γ in supernatant by ELISA. The series is classed as cell-based. How it is done: IFN-γ Release in NK92 Cells Stimulated by IL-12
Purpose: To evaluate the inhibition activity of TYK2 inhibitors in NK92 cells on TYK2 pathway through ELISA method.
Procedure: 1) Seeding NK92 cells into 96-well plate, cell density is 1.5E5 cells/well, 100uL/well; 2)Add prepared test articles into indicated wells, 50uL/well, and continue incubate for 1h, at 37°C; 3) After compound treatment, add 50uL/well IL-12 into indicated wells, final concentration of IL-12 is 2.5ng/mL; 4)Incubate cytokine stimulated cells at 37°C for another 15hrs in CO2 incubator; 5) After cytokine stimulation, transfer culture supernatant into a new plate and centrifuge for 5min at 350x g, and detect IFN-γ concentration in the supernatant with ELISA kit; 6) Data analysis with GrapdPad Prism6.0 software. Table 5. IC50 Values of Exemplary Compounds on TYK2 Pathway

The nature of series [1]: Pharmacokinetic study in rats. The conditions noted are these: rat, plasma, Sprague-Dawley rats, solution. The series is classed as in vivo. As for the experimental part:
Pharmacokinetic profiles of test articles were evaluated in fasted mouse, Sprague-Dawley rats and Beagle dogs. After dosing, blood samples were collected at each time point. For IV injection group, time points were set at 5, 15, 30 min, and then 1, 2, 4, 8 and 24 hours after dosing. For oral gavage group,#time points were set at 15, 30 min, and then 1, 2, 4, 8, and 24 hours. Blood was collected into appropriately labeled tubes containing K2EDTA as the anticoagulant. Plasma was obtained within 1 hours of blood collection by centrifugation at 8000×g and 4 °C for 6 minutes, and then stored at -20 °C until analyzed by LC/MS/MS for quantification. PK parameter values, including, but not necessarily limited to, the maximum plasma concentrations (Cmax), the time to reach the maximum concentrations (Tmax), and the area under the plasma concentration vs. time curve (AUC) from time zero to 24-hour (AUC0-24h) were determined using WinNonlin program. Table 17. […]

Series [2] in a line: Mice colon pharmacokinetic studies. The series is classed as in vivo. The conditions noted are these: mouse, female Balb/c mice, oral gavage, 10 mg/kg; for half-life: read-out: Plasma T1/2 (converted). As for the experimental part:
Pharmacokinetic studies were investigated using female Balb/c mice to determine plasma and colon exposure of tested compounds. Compounds were administrated via oral gavage in a formulation of 0.5% Methocel (A4M) + 0.1% Tween80 in water to Balb/c mic. Animals were anesthetized at the designated time points, plasma, colon tissue and colonic contents samples were collected. Tissue samples were homogenized using MeOH : PBS(1:1). All samples were analyzed by LC-MS/MS.

Series [3] in a line: Brain pharmacokinetic studies in dogs. The conditions noted are these: for AUC / Kp: Beagle dogs, iv, 2 mg/kg, solution; for AUC: AUC0-4h; for Kp: read-out: Brain AUC/Systemic AUC; for brain exposure in Dogs: result in words. The format is in vivo, Beagle dogs. How it is done: Pharmacokinetic profiles of test articles were evaluated in Beagle dogs. Different kinds of formulations were designed to ensure test articles fully dissolved and wouldn't precipitate in 1:10 SGF or FaSSIF dilution. The animal was restrained manually at the designated time points, approximately 500 µL of blood sample was collected via cephalic vein into K2EDTA tubes. The blood samples were maintained in wet ice first and centrifuged to obtain plasma (2000g, 4°C, 5 min) within 15 minutes post sampling. The animal was euthanized with pure […] inhalation. Shave the hair on the back of head and neck, and clean the skin of the area with iodine and 75% ethanol. Inject about 4-5 L saline from carotid artery for perfusion. Brain was collected after the perfusion fluid (saline) was gradually clarified. Dry the tissue on filtrate paper on ice, and then weigh the brain tissue and store at -70°C for later analysis. […] Table 15. Systemic Pharmacokinetic Parameters in Beagle Dogs

[4] abbreviates: plasma, read-out: Plasma AUC0-24.
[5] abbreviates: colon tissue, read-out: Colon AUC0-24.
The mark [6] stands for this setting: colonic contents, read-out: Colon content AUC0-24.
[7] abbreviates: dog, systemic (plasma), read-out: AUC.

Where two headings read alike, the source gives them in different places. A value given as a limit tells only on which side of the number the result lay.

Regarding `COC(=O)c1cnc(NC(=O)[C@@H]2C[C@@H]2F)cc1Nc1nn(C)c2ccc(C(O)C(F)(F)F)c(OC)c12` (single isomer, unassigned) [Example 122A, Methyl 6-((1S,2S)-2-fluorocyclopropane-1-carboxamido)-4-((4-methoxy-1-methyl-5-((S*)-2,2,2-trifluoro-1-hydroxyethyl)-1H-indazol-3-yl)amino) nicotinate], the IC50 in the series on IFNa pSTAT1 was < 0.061 nM. Further, in the series with Caco-2 cell lines, the “efflux ratio compared with the amide compounds 21,23,25,33,49A and BMS986165” value (“efflux ratio” below) is “lower efflux ratio numbers”.

On to `[2H]C([2H])([2H])NC(=O)c1cnc(NC(=O)C2CC2)cc1Nc1cnn2ccc([C@H](O)C(F)(F)F)c(OC)c12` [Example 7A, (S)-6-(cyclopropanecarboxamido)-4-((4-methoxy-5-(2,2,2-trifluoro-1-hydroxyethyl)pyrazolo[1,5-a]pyridin-3-yl)amino)-N-(methyl-d3)nicotinamide], for which the IC50 in the series with TYK2 pathway was 9.1 nM. In series [1] (intravenous, 1 mg/kg), this compound had an AUC of 0.317 µg·h/mL, a Vd of 3.3 L/kg, a clearance of 53.2 mL/min/kg and a half-life of 0.84 h. In series [1] (oral, 10 mg/kg), this compound showed an AUC of 0.258 µg·h/mL, a Cmax of 31.3 ng/mL, a bioavailability of 8.1% and a half-life of 4.91 h. Besides, in series [2] (plasma), the highest level (Cmax) was 426 ng/mL, the Tmax turned out to be 0.25 h and the half-life was 1.75 h. Further, the AUC(0-t) in series [2] (setting [4]) was 0.599 µg·h/mL. The AUC(0-t) in series [2] (setting [5]) is 45.8 µg·h/mL. Also, the AUC(0-t) in series [2] (setting [6]) worked out at 1430 µg·h/mL.

As for `[2H]C([2H])([2H])NC(=O)c1cnc(Nc2ccn(C)n2)cc1Nc1cnn2ccc([C@H](O)C(F)(F)F)c(OC)c12` [Example 21, (S)-4-((4-methoxy-5-(2,2,2-trifluoro-1-hydroxyethyl)pyrazolo[1,5-a]pyridin-3-yl)amino)-N-(methyl-d3)-6-((1-methyl-1H-pyrazol-3-yl)amino)nicotinamide], the IC50 with TYK2 pathway is 14.5 nM.

In the series with TYK2 pathway, `[2H]C([2H])([2H])NC(=O)c1cnc(Nc2cc(C)nc(C)n2)cc1Nc1cnn2ccc([C@H](O)C(F)(F)F)c(OC)c12` [Example 25, (S)-6-((2,6-Dimethylpyrimidin-4-yl)amino)-4-((4-methoxy-5-(2,2,2-trifluoro-1-hydroxyethyl)pyrazolo[1,5-a]pyridin-3-yl)amino)-N-(methyl-d3)nicotinamide] yielded an IC50 of 7.18 nM.

`[2H]C([2H])([2H])NC(=O)c1cnc(NC(=O)C2CC2)cc1Nc1cnn2ccc([C@H](OC)C(F)(F)F)c(OC)c12` [Example 27, (S)-6-(cyclopropanecarboxamido)-4-((4-methoxy-5-(2,2,2-trifluoro-1-methoxyethyl)pyrazolo[1,5-a]pyridin-3-yl)amino)-N-(methyl-d3)nicotinamide] displayed an IC50 in the series on TYK2 pathway of 6.02 nM.

The compound `[2H]C([2H])([2H])NC(=O)c1nnc(NC(=O)C2CC2)cc1Nc1cnn2ccc([C@H](O)C(F)(F)F)c(OC)c12` [Example 30, (S)-6-(cyclopropanecarboxamido)-4-((4-methoxy-5-(2,2,2-trifluoro-1-hydroxyethyl)pyrazolo[1,5-a]pyridin-3-yl)amino)-N-(methyl-d3)pyridazine-3-carboxamide] showed an IC50 in the series on TYK2 pathway of 6.72 nM.

Take `COC(=O)c1cnc(NC(=O)C2CC2)cc1Nc1nn(C)c2ccc([C@H](OC)C(F)(F)F)c(OC)c12` [Example 45B, Methyl (S)-6-(cyclopropanecarboxamido)-4-((4-methoxy-1-methyl-5-(2,2,2-trifluoro-1-methoxyethyl)-1H-indazol-3-yl)amino)nicotinate]: in the series on Caco-2 cell lines, the “efflux ratio” value is “lower efflux ratio numbers”. For the same compound, the “AUC” value in series [3] (brain) worked out at 1963 ng·h/g; in series [3] (setting [7]) it was 1.76 µg·h/mL. For the same compound, the Kp in series [3] (dog, brain) is 1.12. Moreover, in series [3], the “brain exposure in Dogs” value is on record as “good brain exposure”.

Turning to `COC(=O)c1cnc(NC(=O)C2CC2)cc1Nc1nn(C)c2ccc([C@H](O)C(F)(F)F)c(OC)c12` [Example 48A, Methyl (S)-6-(cyclopropanecarboxamido)-4-((4-methoxy-1-methyl-5-(2,2,2-trifluoro-1-hydroxyethyl)-1H-indazol-3-yl)amino)nicotinate], in the series on IFNa pSTAT1, the IC50 was < 0.061 nM. Moreover, in the series on Caco-2 cell lines, the “efflux ratio” value was “lower efflux ratio numbers”.

On to `[2H]C([2H])([2H])NC(=O)c1cnc(NC(=O)C2CC2)cc1Nc1nn(C)c2ccc([C@H](O)C(F)(F)F)c(OC)c12` [Example 49A, (S)-6-(cyclopropanecarboxamido)-4-((4-methoxy-1-methyl-5-(2,2,2-trifluoro-1-hydroxyethyl)-1H-indazol-3-yl)amino)-N-(methyl-d3)nicotinamide], for which, in series [1] (intravenous, 2 mg/kg), the AUC turned out to be 0.904 µg·h/mL, the Vd was found to be 2.2 L/kg, the clearance came to 38.2 mL/min/kg and the half-life is 1.04 h. In addition, in series [1] (oral, 10 mg/kg), the AUC came to 0.418 µg·h/mL, the peak level (Cmax) was 74.2 ng/mL, the bioavailability is 9.25% and the half-life was 3.14 h. Moreover, the IC50 with IFNa pSTAT1 is < 0.061 nM. Moreover, in series [2] (plasma), the Cmax was determined as 1340 ng/mL, the Tmax was determined as 0.25 h and the half-life is 1.03 h. In addition, in series [2] (setting [4]), the AUC(0-t) is 1.22 µg·h/mL. Moreover, the AUC(0-t) in series [2] (setting [5]) turned out to be 21.3 µg·h/mL. The AUC(0-t) in series [2] (setting [6]) stood at 1590 µg·h/mL.

With `[2H]C([2H])([2H])O[C@@H](c1ccc2c(c(Nc3cc(NC(=O)C4CC4)ncc3C(=O)OC)nn2C)c1OC)C(F)(F)F` [Example 50B, Methyl (S)-6-(cyclopropanecarboxamido)-4-((4-methoxy-1-methyl-5-(2,2,2-trifluoro-1-(methoxy-d3)ethyl)-1H-indazol-3-yl)amino)nicotinate], the results for the “AUC” value in series [3] (brain) and in series [3] (setting [7]) were 1856 ng·h/g and 1.37 µg·h/mL, respectively. For the same compound, the Kp in series [3] (dog, brain) came to 1.36. Moreover, the “brain exposure in Dogs” value in series [3] is on record as “good brain exposure”.

In series [1] (intravenous, 3 mg/kg), `[2H]C([2H])([2H])NC(=O)c1cnc(NC(=O)C2CC2)cc1Nc1nn(C)c2ccc([C@H](OC([2H])([2H])[2H])C(F)(F)F)c(OC)c12` [Example 55A, (S)-6-(cyclopropanecarboxamido)-4-((4-methoxy-1-methyl-5-(2,2,2-trifluoro-1-(methoxy-d3)ethyl)-1H-indazol-3-yl)amino)-N-(methyl-d3)nicotinamide] showed an AUC of 3.65 µg·h/mL, a Vd of 2.05 L/kg, a clearance of 13.6 mL/min/kg and a half-life of 2.56 h. In series [1] (oral, 5 mg/kg), this compound showed an AUC of 2.95 µg·h/mL, a Cmax of 409 ng/mL, a bioavailability of 48.6% and a half-life of 2.67 h. Moreover, the IC50 in the series on IFNa pSTAT1 is 0.192 nM.

What is called Vd is a proportionality between amount in the body and measured concentration, not a real space. A low value points to little distribution into tissue. One may read the clearance as a measure of how efficiently the substance is removed, as volume per time. What is called Cmax is the highest concentration seen after dosing. One may read the bioavailability as the share of a dose that reaches the circulation, judged against a reference dose that is usually intravenous. A low value points to little systemic uptake. A word on the Tmax: it is the time from dosing to the highest level.

For the origin of these results see EP4813463A2, “TYK2 INHIBITORS AND COMPOSITIONS AND METHODS THEREOF” (Lynk Pharmaceuticals Co. Ltd., priority 2023, dated 2024).
